According to patent US20120295920A1, “5-AMINO-4-HYDROXYPENTOYL AMIDES” (priority 2009, published 2012):
Like-named read-outs stand apart in the source and are kept apart here.

What was measured:
[1] = system: HIV-1 wild-type strain; assay: General antiviral assay, cell-based virus replication in MT4-LTR-EGFP cells, wild-type strain
Protocol: (§1) MT4-LTR-EGFP cells were obtained by transfecting MT4 cells with a selectable construct encompassing the sequences coding for the HIV long terminal repeat (LTR) as a promoter for the expression of enhanced green fluorescent protein (EGFP) and subsequent selection of permanently transfected cells.
(§2) The antiviral activity on different HIV-1 strains, was determined in a cell-based virus replication assay. Here MT4-LTR-EGFP cells (150,000 cells/ml) are infected (multiplicity of infection [MOI] of 0.0025) in the presence or absence of different inhibitor concentrations. Two methodologies for read-out were used, either quantification of GFP-fluoresence on day 3 post-infection, or quantification of cell-viability using rezazurin (as described by Fields, R. D., and M. V. Lancaster (1993) Am. Biotechnol. Lab. 11:48-50) on day 4 post infection.

[2] = system: mock-infected MT4 cells; assay: General toxicity assay on mock-infected MT4 cells with CMV-EGFP reporter (CC50); format: cell-based
[3] = system: HIV-1 IIIB; assay: 50% HS-Rezazurin: antiviral assay in the presence of 50% human serum, MT-4 cells, resazurin cell viability; format: cell-based
Protocol: For the Antiviral assay in the presence of 50% human serum MT-4 cells were infected with HIV-1 IIIB at a MOI of 0.001 to 0.01 CCID50/cell in RPMI1640 medium. Following 1 h of incubation, cells were washed and plated into a 96-well plate containing serial dilutions of compound in the presence of 10% fetal calf serum (FCS), or 50% human serum. After 4 days incubation, the EC50 in the presence of 50% human serum was determined by a cell viability assay using resazurin.
The last column lists the results for the wild-type strain IIB in the presence of 50% human serum MT-4 cells.

[4] = system: HIV-1 Strain C (G048G/V, V082A); assay: microbe, parasite or virus in culture; format: cell-based; details: clinical isolate Strain C; read-out: C EC50
Protocol: as §1, §2
(§3) In the following Table, Strains A, B, and C are clinical isolates that include the following protease inhibitor resistance mutations in the protease domain (background mutations are not mentioned).

[5] = system: HIV-1 Strain B (M046I, I050V); assay: microbe, parasite or virus in culture; format: cell-based; details: clinical isolate Strain B; read-out: B EC50
Protocol: as §1, §2, §3

[6] = system: HIV-1 Strain A (M046I, I084V); assay: microbe, parasite or virus in culture; format: cell-based; details: clinical isolate Strain A; read-out: A EC50
Protocol: as §1, §2, §3

[7] = wild-type strain IIIB, MT4-LTR-EGFP cells
[8] = mock-infected MT4 cells with CMV-EGFP reporter, read-out: TOX-MT4CMV (CC50)
[9] = MT4LTR cells, read-out: TOX-MT4LTR (CC50)

SMILES	EC50 [1, 7]	CC50 [2, 8]	EC50 [3]	EC50 [4]	EC50 [5]	EC50 [6]	CC50 [2, 9]	EC50 ([1]; read-out: HIV-IIIB EC50)
COC(=O)N[C@H](C(=O)N[C@@H](Cc1ccc(-c2ccc(N(C)C)nc2)cc1)[C@@H](O)C[C@@H](Cc1ccccc1F)C(=O)N[C@H]1c2cc(F)ccc2OC[C@H]1O)C(C)(C)C [Compound 33]	2.5 nM	> 32000 nM	9.8 nM	0.9 nM	1 nM	1.5 nM		
COC(=O)NC(C(=O)NC(Cc1ccc(-c2ccc(N(C)C)nc2)cc1)C(O)CC(Cc1cccc(Cl)c1)C(=O)NC1c2ccccc2OCC1O)C(C)(C)C (centres unmarked) [Compound 2]	3 nM	> 32000 nM	19.7 nM	1.1 nM	2.2 nM	3.3 nM		
COC(=O)N[C@H](C(=O)N[C@@H](Cc1ccc(-c2cnc(N(C)C)nc2)cc1)[C@@H](O)C[C@@H](Cc1ccccc1Cl)C(=O)N[C@H]1c2cc(F)ccc2OC[C@H]1O)C(C)(C)C [Compound 63]	1.5 nM		9.4 nM	0.6 nM	0.7 nM	1.2 nM	> 32000 nM	
COC(=O)N[C@H](C(=O)N[C@@H](Cc1ccc(-c2ccc(OC)nc2)cc1)[C@@H](O)C[C@@H](Cc1cccc(F)c1)C(=O)N[C@H]1c2cccc(F)c2OC[C@H]1O)C(C)(C)C [Compound 40]	2.4 nM	> 32000 nM	11.2 nM	0.8 nM	1 nM	1.6 nM	> 32000 nM	
COC(=O)N[C@H](C(=O)N[C@@H](Cc1ccc(-c2ccc(OC)nc2)cc1)[C@@H](O)C[C@@H](Cc1cccc(F)c1)C(=O)N[C@H]1c2cc(Cl)ccc2OC[C@H]1O)C(C)(C)C [Compound 39]	3 nM	> 32000 nM	16.4 nM	1.3 nM	2.1 nM	3.9 nM	> 32000 nM	
COCCNC(=O)[C@@H](NC(=O)[C@H](Cc1cccc(F)c1)C[C@H](O)[C@H](Cc1ccc(-c2ccc(OC)nc2)cc1)NC(=O)[C@@H](NC(=O)OC)C(C)(C)C)C(C)(C)C [Compound 92]	2.6 nM	> 32000 nM	8.4 nM	2.9 nM	1.8 nM	4.2 nM	> 32000 nM	
Cc1cc(-c2ccc(C[C@H](NC(=O)O[C@H]3CO[C@H]4OCC[C@H]43)[C@@H](O)C[C@@H](Cc3ccccc3F)C(=O)N[C@H]3c4cc(Cl)ccc4OC[C@H]3O)cc2)cc(C)n1 [Compound 76]	2.9 nM		20.5 nM	1.1 nM	1.5 nM	1.7 nM	> 32000 nM	
COC(=O)N[C@H](C(=O)N[C@@H](Cc1ccc(-c2cnc(OC)nc2)cc1)[C@@H](O)C[C@@H](Cc1ccccc1F)C(=O)N[C@H]1c2cc(Cl)ccc2OC[C@H]1O)C(C)(C)C [Compound 48]	3.8 nM		7.5 nM	1.3 nM	2.2 nM	2.6 nM	> 32000 nM	
CN(C)c1ccc(-c2ccc(CC(NC(=O)C(NC(=O)CN3CCCC3)C(C)(C)C)C(O)CC(Cc3ccccc3F)C(=O)NC3c4cc(Cl)ccc4OCC3O)cc2)cn1 (centres unmarked) [Compound 19]	5.3 nM	> 27000 nM	22.1 nM	1.8 nM	2.4 nM	3.7 nM		
CNC(=O)[C@@H](NC(=O)[C@H](Cc1ccccc1F)C[C@H](O)[C@H](Cc1ccc(-c2ccc(OC)nc2)cc1)NC(=O)[C@@H](NC(=O)OC)C(C)(C)C)C(C)(C)C [Compound 88]	3.4 nM	> 32000 nM	9.9 nM	3 nM	2.8 nM	4.8 nM		
COC(=O)N[C@H](C(=O)N[C@@H](Cc1ccc(-c2ccc(N(C)C)nc2)cc1)[C@@H](O)C[C@@H](Cc1ccccc1F)C(=O)N[C@H]1c2ccc(Cl)cc2OC[C@H]1O)C(C)(C)C [Compound 86]	2.6 nM		17.1 nM	1.3 nM	1.4 nM	7.5 nM	> 32000 nM	
COC(=O)N[C@H](C(=O)N[C@@H](Cc1ccc(-c2cnc(OC(C)C)cn2)cc1)[C@@H](O)C[C@@H](Cc1cccc(F)c1)C(=O)N[C@H]1c2cc(Cl)ccc2OC[C@H]1O)C(C)(C)C [Compound 46]	5.3 nM		34.6 nM	3.7 nM	5.6 nM	9.4 nM	10000 nM	
COC(=O)N[C@H](C(=O)N[C@@H](Cc1ccccc1)[C@@H](O)CN(Cc1ccc(-c2ccccn2)cc1)NC(=O)[C@@H](NC(=O)OC)C(C)(C)C)C(C)(C)C [ATV]	7.6 nM	26000 nM	16 nM	62 nM	3.3 nM	59 nM	> 32000 nM	
CCOc1ccc(-c2ccc(C[C@H](NC(=O)[C@@H](NC(=O)OC)C(C)(C)C)[C@@H](O)C[C@@H](Cc3ccccc3F)C(=O)N[C@H]3c4cc(Cl)ccc4OC[C@H]3O)cc2)cn1 [Compound 44]	3.2 nM		13.7 nM	2 nM	2.2 nM		> 32000 nM	
COC(=O)N[C@H](C(=O)N[C@@H](Cc1ccc(-c2ccc(OC)nc2)cc1)[C@@H](O)C[C@@H](Cc1ccccc1F)C(=O)N[C@H]1c2cc(F)ccc2OC[C@H]1O)C(C)(C)C [Compound 59]	1.2 nM		5.8 nM		0.6 nM	0.9 nM	> 32000 nM	
COC(=O)N[C@H](C(=O)N[C@@H](Cc1ccc(-c2cncc(OC)n2)cc1)[C@@H](O)C[C@@H](Cc1ccccc1F)C(=O)N[C@H]1c2cc(Cl)ccc2OC[C@H]1O)C(C)(C)C [Compound 24]	3.3 nM	> 32000 nM	16.1 nM	1.7 nM	1.9 nM			
CNC(=O)[C@@H](NC(=O)[C@H](Cc1ccccc1F)C[C@H](O)[C@H](Cc1ccc(-c2ccc(N(C)C)nc2)cc1)NC(=O)O[C@H]1CO[C@H]2OCC[C@H]21)C(C)(C)C [Compound 69]		> 32000 nM	26.6 nM	5.7 nM	7 nM			11.6 nM
CN(C)c1ccc(-c2ccc(CC(NC(=O)C(NC(=O)CN3CCCC3)C(C)(C)C)C(O)CC(Cc3cccc(Cl)c3)C(=O)NC3c4cc(F)ccc4OCC3O)cc2)cn1 (centres unmarked) [Compound 9]	8.8 nM	> 27000 nM	31.7 nM	3.7 nM	6.6 nM			
COC(=O)N[C@H](C(=O)N[C@@H](Cc1ccc(-c2ccc(N(C)C)nc2)cc1)[C@@H](O)C[C@@H](Cc1ccccc1F)C(=O)N[C@H]1[C@H](C)CCC[C@H]1O)C(C)(C)C [Compound 89]	1.1 nM	> 32000 nM	4.9 nM	0.8 nM			> 32000 nM	
COCCOC(=O)N[C@H](C(=O)N[C@@H](Cc1ccc(-c2ccc(OC)nc2)cc1)[C@@H](O)C[C@@H](Cc1ccccc1Cl)C(=O)N[C@H]1c2cc(F)ccc2OC[C@H]1O)C(C)(C)C [Compound 57]	1.9 nM		8.7 nM	0.8 nM	0.9 nM		> 32000 nM	
COC(=O)NC(C(=O)NC(Cc1ccc(-c2csc(N(C)C)n2)cc1)C(O)CC(Cc1ccccc1F)C(=O)NC1c2cc(Cl)ccc2OCC1O)C(C)(C)C (centres unmarked) [Compound 20]	3.1 nM	6000 nM	11.2 nM	2.7 nM		7.4 nM		
